Assays:
HRP Type VIA = target: T1, HRP Type VIA (Armoracia rusticana, UniProt P00433); assay: Effect of PBBA amount on the luminol or isoluminol-H2O2-HRP chemiluminescent reaction (Example 1, part 1); type: biochemical, horseradish; settings: for Signal (no HRP) / Signal (with HRP): after 5 minutes
T1 sequence (P00433 31-338): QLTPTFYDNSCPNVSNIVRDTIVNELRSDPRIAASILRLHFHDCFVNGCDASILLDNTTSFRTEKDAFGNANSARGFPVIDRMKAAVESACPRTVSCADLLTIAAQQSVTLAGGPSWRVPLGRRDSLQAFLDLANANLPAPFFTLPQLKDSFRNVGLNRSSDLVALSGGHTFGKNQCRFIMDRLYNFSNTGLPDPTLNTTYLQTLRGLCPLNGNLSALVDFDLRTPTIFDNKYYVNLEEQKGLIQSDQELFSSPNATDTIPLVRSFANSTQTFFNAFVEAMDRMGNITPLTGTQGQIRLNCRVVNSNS
Protocol: PBBA was added in various concentrations (range 0.05µg to 0.5µg) to a luminol-H2O2 reaction in the presence and absence of HRP. […] These two solutions were combined and protected from light. The luminol-hydrogen peroxide reagent (100µl of a 1:10 dilution) was added to a cuvette together with either 10µl of HRP Type VI A (HRP, Sigma Chemical Co., 1:50,000 dilution) or as a control 10µl of Tris Buffer (0.1mol/l, pH 8.6), and various amounts of PBBA (Aldrich Chemical Co.), range 0.05µg-0.5µg in 0.1mol/l Tris, pH 8.6). The reagents were mixed and the light emission recorded after 5 minutes on a Berthold Biolumat LB9500C.
This experiment was repeated, replacing the luminol with isoluminol. […]

HRP = target: T2, HRP (Armoracia rusticana, UniProt P00433); assay: Effect of fixed PBBA on light output with varying amounts of HRP (Example 1, part 2); type: biochemical, horseradish; settings: for Signal (with PBBA): 40µl of PBBA 0.01mg/ml, after 5 minutes; for Signal: Background ratio: with PBBA
T2 construct: purchased Sigma Chemical Co
T2 sequence (P00433 31-338): T1 sequence (P00433 31-338)
Protocol: The above experiment was repeated this time keeping the amount of PBBA enhancer fixed and varying the amount of HRP. The reagents used were 100µl of luminol-hydrogen peroxide, either (a) 40µl of PBBA (0.01mg/ml in 0.lmol/l Tris buffer, pH 8.6) or (b) as a control, 40µl of Tris buffer (0.1mol/l, pH 8.6) and various amounts of HRP (range 5µl to 40µl of 1:50,000 dilution of a lmg/ml stock solution).
The reagents were mixed and light output recorded after 5 minutes on a Berthold Biolumat LB9500C. […] An improved signal:background ratio is shown by comparing results with HRP present with the zero HRP results.

HRP Type VII = assay: PBBA enhancement with different peroxidase enzymes (Example 4); type: biochemical, horseradish; settings: for Signal Reagent with PBBA: 40µl of PBBA 0.01mg/ml
HRP Type VIII = assay: as above; type: biochemical, horseradish
Protocol: (§1) Stock solutions (1mg/ml in 0.1mol/l Tris buffer, pH 8.6) of horseradish peroxidase Type VII, Type VIII and Arthromyces ramosus peroxidase (Sigma) were prepared. The luminol-hydrogen peroxide reagent was prepared as described previously. Luminol-hydrogen peroxide reagent (100µl, 1:10 dilution), either 40µl of PBBA (0.01mg/ml in 0.1mol/l Tris buffer, pH 8.6) or as a control, 40µl of Tris buffer (0.1mol/l, pH 8.6), and 10µl of HRP Type VII (1:50,000 dilution, 2ng) were added to a cuvette. The reagents were mixed and the light emission was recorded after 5 minutes using a Berthold Biolumat LB9500C.
(§2) The above experiment was repeated and the HRP Type VII was replaced by HRP Type VIII (2ng) or Arthromyces ramosus peroxidase (20pg).

[1] = target: T3, Arthromyces ramosus peroxidase (Arthromyces ramosus, UniProt P28313); assay: as above; type: biochemical
T3 sequence (P28313 21-364): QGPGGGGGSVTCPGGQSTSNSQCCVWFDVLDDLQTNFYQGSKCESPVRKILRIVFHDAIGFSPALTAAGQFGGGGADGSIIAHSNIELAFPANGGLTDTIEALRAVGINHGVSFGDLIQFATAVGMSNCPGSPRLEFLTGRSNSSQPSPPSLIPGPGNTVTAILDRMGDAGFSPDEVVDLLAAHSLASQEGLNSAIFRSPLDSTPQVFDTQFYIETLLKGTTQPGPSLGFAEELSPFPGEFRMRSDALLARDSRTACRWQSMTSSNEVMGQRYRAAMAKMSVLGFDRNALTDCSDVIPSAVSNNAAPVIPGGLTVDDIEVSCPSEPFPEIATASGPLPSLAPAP
Protocol: as §1, §2

OB(O)c1ccc(Br)cc1 [PBBA, para-bromophenylboronic acid]
light emission in the luminol-HRP-peroxidase reaction (HRP Type VIA; Column (a), result in words): enhances the light emission | background level of luminescence (HRP Type VIA; Column (b), result in words): reduces the background level of luminescence | Signal: Background ratio (HRP Type VIA; Isoluminol, PBBA 0.05 µg): 2.1 | Signal (no HRP) (HRP Type VIA; Isoluminol, PBBA 0.05 µg): 7664 | Signal (with HRP) (HRP Type VIA; Isoluminol, PBBA 0.05 µg): 15,772 | Signal: Background ratio (HRP Type VIA; Isoluminol, PBBA 0.1 µg): 2.7 | Signal (no HRP) (HRP Type VIA; Isoluminol, PBBA 0.1 µg): 6114 | Signal (with HRP) (HRP Type VIA; Isoluminol, PBBA 0.1 µg): 16,553 | Signal: Background ratio (HRP Type VIA; Isoluminol, PBBA 0.2 µg): 11.9 | Signal (no HRP) (HRP Type VIA; Isoluminol, PBBA 0.2 µg): 5736 | Signal (with HRP) (HRP Type VIA; Isoluminol, PBBA 0.2 µg): 68,282 | Signal: Background ratio (HRP Type VIA; Isoluminol, PBBA 0.3 µg): 110.4 | Signal (no HRP) (HRP Type VIA; Isoluminol, PBBA 0.3 µg): 5613 | Signal (with HRP) (HRP Type VIA; Isoluminol, PBBA 0.3 µg): 619,880 | Signal: Background ratio (HRP Type VIA; Isoluminol, PBBA 0.4 µg): 147.0 | Signal (no HRP) (HRP Type VIA; Isoluminol, PBBA 0.4 µg): 5278 | Signal (with HRP) (HRP Type VIA; Isoluminol, PBBA 0.4 µg): 775,965 | Signal: Background ratio (HRP Type VIA; Luminol, PBBA 0.05 µg): 6.1 | Signal (no HRP) (HRP Type VIA; Luminol, PBBA 0.05 µg): 16,556 | Signal (with HRP) (HRP Type VIA; Luminol, PBBA 0.05 µg): 101,227 | Signal: Background ratio (HRP Type VIA; Luminol, PBBA 0.1 µg): 6.7 | Signal (no HRP) (HRP Type VIA; Luminol, PBBA 0.1 µg): 16,065 | Signal (with HRP) (HRP Type VIA; Luminol, PBBA 0.1 µg): 108,213 | Signal: Background ratio (HRP Type VIA; Luminol, PBBA 0.2 µg): 8.1 | Signal (no HRP) (HRP Type VIA; Luminol, PBBA 0.2 µg): 13,890 | Signal (with HRP) (HRP Type VIA; Luminol, PBBA 0.2 µg): 112,644 | Signal: Background ratio (HRP Type VIA; Luminol, PBBA 0.3 µg): 11.2 | Signal (no HRP) (HRP Type VIA; Luminol, PBBA 0.3 µg): 10,899 | Signal (with HRP) (HRP Type VIA; Luminol, PBBA 0.3 µg): 122,116 | Signal: Background ratio (HRP Type VIA; Luminol, PBBA 0.4 µg): 12.5 | Signal (no HRP) (HRP Type VIA; Luminol, PBBA 0.4 µg): 10,706 | Signal (with HRP) (HRP Type VIA; Luminol, PBBA 0.4 µg): 133,401 | Signal: Background ratio (HRP Type VIA; Luminol, PBBA 0.5 µg): 16.9 | Signal (no HRP) (HRP Type VIA; Luminol, PBBA 0.5 µg): 8,963 | Signal (with HRP) (HRP Type VIA; Luminol, PBBA 0.5 µg): 151,572 | Signal (with PBBA) (HRP; HRP 0 pg): 9,125 | Signal (with PBBA) (HRP; HRP 100 pg): 15,861 | Signal: Background ratio (HRP; HRP 100 pg): 1.7 | Signal (with PBBA) (HRP; HRP 200 pg): 22,895 | Signal: Background ratio (HRP; HRP 200 pg): 2.5 | Signal (with PBBA) (HRP; HRP 400 pg): 38,495 | Signal: Background ratio (HRP; HRP 400 pg): 4.2 | Signal (with PBBA) (HRP; HRP 600 pg): 61,491 | Signal: Background ratio (HRP; HRP 600 pg): 6.7 | Signal (with PBBA) (HRP; HRP 800 pg): 105,972 | Signal: Background ratio (HRP; HRP 800 pg): 11.6 | light output of the chemiluminescent reaction (HRP; at all concentrations tested, result in words): increased the light output | Signal Reagent with PBBA (HRP Type VII; Blank (no peroxidase)): 27,820 | Signal Reagent with PBBA (HRP Type VII; HRP Type VII 2ng, after 5 minutes): 49,703 | Signal: Background (HRP Type VII; HRP Type VII, with PBBA): 1.8 | level of light output (HRP Type VII; any of the peroxidases tested (HRP Type VII, Type VIII, Arthromyces ramosus peroxidase), result in words): did not increase the level of light output | signal to background ratio (HRP Type VII; in all cases (HRP Type VII, Type VIII, Arthromyces ramosus peroxidase), result in words): improved in all cases | Signal Reagent with PBBA (HRP Type VIII; HRP Type VIII 2ng, 40µl of PBBA 0.01mg/ml, after 5 minutes): 156,204 | Signal: Background (HRP Type VIII; HRP Type VIII, with PBBA): 5.6 | Signal Reagent with PBBA ([1]; Arthromyces ramosus peroxidase 20pg, 40µl of PBBA 0.01mg/ml, after 5 minutes): 58,208 | Signal: Background ([1]; Arthromyces ramosus peroxidase, with PBBA): 2.1

From patent EP0626016B1, “[…] […]” (BRITISH TECHNOLOGY GROUP LIMITED, priority 1992, dated 1993)
